Our source for the inhibition values is patent publication US20090264401A1, “SUBSTITUTED PYRIMIDIN-5-CARBOXAMIDES 281” (AstraZeneca AB, priority 2008, published 2009).

The target of the experiment is T1, human 11βHSD1 enzyme (Homo sapiens, UniProt P28845).
T1 construct: baculovirus expressed N terminal 6-His tagged full length human 11βHSD1 enzyme; 6-His (N); made in house
The experiment is described as follows: 11βHSD1 cortisone to cortisol conversion, competitive HTRF assay. The format is biochemical. The conditions noted are these: human 11-βHSD; test concentration of 30 μM of compound. Summed up: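 Enzyme was baculovirus-expressed, N-terminal 6-His-tagged full-length human 11βHSD1, purified on a copper chelate column. Compounds were added in buffer containing 1% DMSO at 10-fold final concentration.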

T1 sequence (P28845 whole entry): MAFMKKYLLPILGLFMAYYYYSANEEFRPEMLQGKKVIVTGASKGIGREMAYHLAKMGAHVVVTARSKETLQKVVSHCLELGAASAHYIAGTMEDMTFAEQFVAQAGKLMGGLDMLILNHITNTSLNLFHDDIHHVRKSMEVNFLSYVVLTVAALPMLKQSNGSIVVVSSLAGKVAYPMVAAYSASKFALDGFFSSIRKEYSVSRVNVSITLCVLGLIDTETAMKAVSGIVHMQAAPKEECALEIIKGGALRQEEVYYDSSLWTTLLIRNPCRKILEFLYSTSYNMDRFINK

One may read the inhibition as the relative decrease from the control value, in per cent. Turning to `CC(C)Oc1ncc(C(=O)N[C@H]2C3CC4CC2C[C@@](O)(C4)C3)c(C2CCC2)n1` [Example 107, 4-cyclobutyl-N-[(2r,5s)-5-hydroxyadamantan-2-yl]-2-isopropoxypyrimidine-5-carboxamide], the inhibition at 30 µM amounted to 97.3%.
In the case of `O=C(N[C@H]1C2CC3CC1C[C@@](O)(C3)C2)c1cnc(N2CCCSCC2)nc1C1CC1` [Example 43, 4-Cyclopropyl-N-[(2r,5s)-5-hydroxyadamantan-2-yl]-2-(1,4-thiazepan-4-yl)pyrimidine-5-carboxamide], the inhibition at 30 µM worked out at 99.2%.
In the case of `O=C(N[C@H]1C2CC3CC1C[C@@](O)(C3)C2)c1cnc(NC2CCC2)nc1C1CCCO1` (stereo partly shown) [Example 162, 2-(cyclobutylamino)-N-[(2r,5s)-5-hydroxyadamantan-2-yl]-4-(oxolan-2-yl)pyrimidine-5-carboxamide] it was 97.7%; in that of `O=C(N[C@H]1C2CC3CC1C[C@@](O)(C3)C2)c1cnc(NCCN2CCOCC2)nc1C1CCCC1` [Example 147, 4-cyclopentyl-N-[(2r,5s)-5-hydroxytricyclo[3.3.1.13,7]dec-2-yl]-2-[(2-morpholin-4-ylethyl)amino]pyrimidine-5-carboxamide], 103%.
As for `COc1nc(NC2CC2)ncc1C(=O)N[C@H]1C2CC3CC1C[C@@](O)(C3)C2` [Example 206, 2-(cyclopropylamino)-N-[(2r,5s)-5-hydroxytricyclo[3.3.1.13,7]dec-2-yl]-4-methoxypyrimidine-5-carboxamide], the figure is 105%; as for `O=C(N[C@H]1C2CC3CC1C[C@@](O)(C3)C2)c1cnc(N2CCS(=O)(=O)CC2)nc1C1CCCCC1` [Example 198, 4-Cyclohexyl-2-(1,1-dioxidothiomorpholin-4-yl)-N-[(2r,5s)-5-hydroxyadamantan-2-yl]pyrimidine-5-carboxamide], 94%; as for `CN1CCN(c2ncc(C(=O)N[C@H]3C4CC5CC3C[C@@](O)(C5)C4)c(C3CCCC3)n2)CC1=O` [Example 128, 4-cyclopentyl-N-[(2r,5s)-5-hydroxyadamantan-2-yl]-2-(4-methyl-3-oxopiperazin-1-yl)pyrimidine-5-carboxamide], 99.1%.
As for `CC(C)Oc1nc(NC2CCC2)ncc1C(=O)N[C@H]1C2CC3CC1C[C@@](O)(C3)C2` [Example 217, 2-(cyclobutylamino)-N-[(2r,5s)-5-hydroxytricyclo[3.3.1.13,7]dec-2-yl]-4-(1-methylethoxy)pyrimidine-5-carboxamide], the figure is 94.2%; as for `O=C(N[C@H]1C2CC3CC1C[C@@](O)(C3)C2)c1cnc(NC2COC2)nc1C1CCC1` [Example 104, 4-cyclobutyl-N-[(2r,5s)-5-hydroxyadamantan-2-yl]-2-(oxetan-3-ylamino)pyrimidine-5-carboxamide], 99.3%; as for `Cc1ncc(C(=O)N[C@H]2C3CC4CC2C[C@@](O)(C4)C3)c(OC2CCC2)n1` [Example 203, 4-Cyclobutyloxy-N-[(2r,5 s)-5-hydroxyadamantan-2-yl]-2-methylpyrimidine-5-carboxamide], 98.6%.
Consider `O=C(N[C@H]1C2CC3CC1C[C@@](O)(C3)C2)c1cnc(N2CC[S+]([O-])CC2)nc1C1CCCCC1` [Example 197, 4-Cyclohexyl-N-[(2r,5 s)-5-hydroxyadamantan-2-yl]-2-(1-oxidothiomorpholin-4-yl)pyrimidine-5-carboxamide], for which the inhibition at 30 µM worked out at 97.8%.
As for `O=C(N[C@H]1C2CC3CC1C[C@@](O)(C3)C2)c1cnc(N2CCCS(=O)(=O)CC2)nc1C1CC1` [Example 45, 4-Cyclopropyl-2-(1,1-dioxo-1,4-thiazepan-4-yl)-N-[(2r,5s)-5-hydroxyadamantan-2-yl]pyrimidine-5-carboxamide], the figure is 98.5%.
On to `COc1ncc(C(=O)N[C@H]2C3CC4CC2C[C@@](O)(C4)C3)c(C2CCCC2)n1` [Example 117, 4-cyclopentyl-N-[(2r,5s)-5-hydroxyadamantan-2-yl]-2-methoxypyrimidine-5-carboxamide], for which the inhibition at 30 µM came out at 97.4%.
